# Measurements as given in article PMC10381309 (Journal of Fungi, 2023).
# How the values were obtained:
# Type in all cases: cell-based
# [1] = test system: Fonsecaea pedrosoi (CFP 00791); assay: NIH Clinical Collection screening for antifungal activity (growth inhibition, OD 530 nm); settings: 10 µM; CFP00791 Fonsecaea pedrosoi isolate; 72–96 h; read-out: % Growth Inhibition
# Method: These substances are part of the NIH Roadmap Molecular Libraries Screening Centers Network screening library, a collection of chemically diverse substances in Phase I-III clinical trials. Each substance was initially diluted to 1 mM in DMSO and stored at −20 °C until use. […] The final DMSO concentration corresponded to 0.5% v/v. The inoculum was prepared according to the protocol for filamentous fungi proposed by the European Committee on Antimicrobial Susceptibility Testing—EUCAST, with minor modifications. […] After growth, conidia were suspended in 3 mL of sterile distilled water with 0.1% Tween 20, vortexed, and the concentration adjusted to the 0.5 McFarland scale. The suspension was then diluted 1:10 in order to obtain a final working inoculum at 2–5 × 10^5 CFU/mL. Next, 100 µL of the inoculum was added to each well and the plates incubated at 35 °C for 72–96 h. Negative and positive controls consisted of culture medium alone and drug-free culture medium with the fungal inoculum previously described, respectively. Plates were read using a microplate reader (Epoch, Biotek, Wenusky, VT, USA) with a 530 nm filter to obtain the optical density. All plates were also visually read to confirm the equipment data. A calculation was performed to obtain the percentage of inhibition of fungal growth, according to the formula: (1 − (OD1/OD2)) × 100, where OD1 = optical density of the fungus in the presence of the drug; and OD2 = optical density of the growth control drug-free well.
# [2] = test system: Cladophialophora carrionii (CFP 00910); assay: MIC determination (EUCAST, minor modifications); settings: C. carrionii
# Method: (§1) Minimum inhibitory concentrations (MICs) were determined using the method proposed by the European Committee on Antimicrobial Susceptibility Testing (EUCAST), with minor modifications. Hit drugs were serially diluted (80 μM to 0.15625 μM) in RPMI 1640 (twice concentrated, pH 7; supplemented with 2% glucose) buffered with MOPS in 96-well plates. The inoculums of all strains were prepared following the EUCAST protocol. Plates were incubated at 35 °C for 72–96 h. The MIC of the NCC substances was determined as the lowest concentration capable of inhibiting 100% of fungal growth when compared to the growth control well. MIC values were determined in duplicate.
# [3] = test system: Exophiala dermatitidis (ATCC 28869); assay: MIC determination (EUCAST, minor modifications); settings: E. dermatitidis
# Method: as §1
# [4] = test system: Exophiala heteromorpha (ATCC 28180); assay: MIC determination (EUCAST, minor modifications); settings: E. heteromorpha
# Method: as §1
# [5] = test system: Fonsecaea monophora (CFP 00911); assay: MIC determination (EUCAST, minor modifications); settings: F. monophora
# Method: as §1
# [6] = test system: Fonsecaea nubica (CFP 00912); assay: MIC determination (EUCAST, minor modifications); settings: F. nubica
# Method: as §1
# [7] = test system: Fonsecaea pedrosoi (CFP 00791); assay: MIC determination (EUCAST, minor modifications); settings: F. pedrosoi
# Method: as §1
# [8] = test system: Phialophora verrucosa (CFP 00937); assay: MIC determination (EUCAST, minor modifications); settings: P. verrucosa
# Method: as §1
# [9] = test system: Rhinocladiela similis (CFP 00790); assay: MIC determination (EUCAST, minor modifications); settings: R. similis
# Method: as §1
# [10] = test system: Cladophialophora carrionii (CFP 00910); assay: Minimum fungicidal concentration determination; settings: C. carrionii
# Method: The MFC was determined as the lowest drug concentration without fungal growth on Sabouraud agar after five days of incubation at 35 °C.
# [11] = test system: Exophiala dermatitidis (ATCC 28869); assay: Minimum fungicidal concentration determination; settings: E. dermatitidis
# Method: (§2) Minimum fungicidal concentration (MFC) was determined in triplicate by transferring a 5 μL aliquot from each well without fungal growth of the microdilution plates used for MIC determination, as described above, onto 2% glucose Sabouraud agar (Sigma Chemical Corporation). The MFC was determined as the lowest drug concentration without fungal growth on Sabouraud agar after five days of incubation at 35 °C. When the MFC/MIC ratio of a hit drug was 1 or 2, the substance was considered fungicidal against the pathogen. If this ratio was greater than 2, the hit drug was considered to be fungistatic.
# [12] = test system: Exophiala heteromorpha (ATCC 28180); assay: Minimum fungicidal concentration determination; settings: E. heteromorpha
# Method: as §2
# [13] = test system: Fonsecaea monophora (CFP 00911); assay: Minimum fungicidal concentration determination; settings: F. monophora
# Method: as §2
# [14] = test system: Fonsecaea nubica (CFP 00912); assay: Minimum fungicidal concentration determination; settings: F. nubica
# Method: as §2
# [15] = test system: Fonsecaea pedrosoi (CFP 00791); assay: Minimum fungicidal concentration determination; settings: F. pedrosoi
# Method: as §2
# [16] = test system: Phialophora verrucosa (CFP 00937); assay: Minimum fungicidal concentration determination; settings: P. verrucosa
# Method: as §2
# [17] = test system: Rhinocladiela similis (CFP 00790); assay: Minimum fungicidal concentration determination; settings: R. similis
# Method: as §2
# VERO cells (ATCC CCL-81) = assay: Cytotoxicity of hit drugs, MTT, 24 h; settings: African green monkey
# Method: VERO cells (ATCC® CCL-81, a kidney tissue derived from a normal adult African green monkey) were cultured in 199 medium with Earle’s salts supplemented with 100 U/mL of penicillin–100 µg/mL of streptomycin (Cultilab LTDA, São Paulo, Brazil) and 10% fetal bovine serum (FBS, Cultilab LTDA, Brazil) in an incubator at 37 °C with 5% CO2. Cells were subcultured in 25 or 75 cm^2 culture flasks once a week and the culture medium was also changed once a week. The cells used in the experiments were from passages 10 to 29 [42]. Cytotoxicity assays to assess cell viability were performed in 96-well plates with 5 × 10^4 cells/well that were exposed to hit drug solutions for 24 h at 37 °C in an incubator with 5% CO2. […]. A solution of 10% Tween 80 solution was used as the positive cellular death control. Wells with VERO cells receiving only the culture medium with or without 1% DMSO were also included as positive cellular growth controls.
# The 3-(4,5-dimethylthiazol-2-yl)-2,5-diphenyltetrazolium bromide (MTT, Sigma-Aldrich®, USA) reagent dissolved in PBS, pH 7.4, was used to check cell viability. Results were read at 492 nm on a Thermo Scientific® Multiskan microplate spectrophotometer reader and expressed as percent cell viability in the culture medium after addition of a 10% Tween 80 solution.
compound,measurement,setting,value
COC(=O)Nc1nc2ccc(C(=O)c3ccccc3)cc2[nH]1 [Mebendazole],inhibition at 10 µM,[1],83%
same,Selectivity Index (SI),[2]; CC50 Vero 24 h / MIC,135.59
same,MIC,"[2]; Cladophialophora carrionii, 100% growth inhibition, read-out: MIC",2.5 µM
same,Selectivity Index (SI),[3]; CC50 Vero 24 h / MIC,16.94
same,MIC,"[3]; Exophiala dermatitidis, ATCC28869, 100% growth inhibition, read-out: MIC",20 µM
same,Selectivity Index (SI),[4]; CC50 Vero 24 h / MIC,67.79
same,MIC,"[4]; Exophiala heteromorpha, ATCC28180, 100% growth inhibition, read-out: MIC",5 µM
same,Selectivity Index (SI),[5]; CC50 Vero 24 h / MIC,135.59
same,MIC,"[5]; Fonsecaea monophora, 100% growth inhibition, read-out: MIC",2.5 µM
same,Selectivity Index (SI),[6]; CC50 Vero 24 h / MIC,67.79
same,MIC,"[6]; Fonsecaea nubica, 100% growth inhibition, read-out: MIC",5 µM
same,Selectivity Index (SI),[7]; CC50 Vero 24 h / MIC,67.79
same,MIC,"[7]; Fonsecaea pedrosoi, 100% growth inhibition, read-out: MIC",5 µM
same,Selectivity Index (SI),[8]; CC50 Vero 24 h / MIC,67.79
same,MIC,"[8]; Phialophora verrucosa, 100% growth inhibition, read-out: MIC",5 µM
same,MIC,"[9]; 100% growth inhibition, read-out: MIC",5 µM
same,Selectivity Index (SI),[9]; CC50 Vero 24 h / MIC,67.79
same,MFC:MIC Ratio,[10],1
same,fungicidal or fungistatic (MFC/MIC ratio),[10],"fungicidal (When the MFC/MIC ratio of a hit drug was 1 or 2, the substance was considered fungicidal)"
same,MFC,"[10]; Cladophialophora carrionii, read-out: MFC",2.5 µM
same,MFC:MIC Ratio,[11],>4
same,MFC,"[11]; Exophiala dermatitidis, ATCC28869, read-out: MFC",> 80 µM
same,MFC:MIC Ratio,[12],>16
same,MFC,"[12]; Exophiala heteromorpha, ATCC28180, read-out: MFC",> 80 µM
same,MFC:MIC Ratio,[13],32
same,MFC,"[13]; Fonsecaea monophora, read-out: MFC",80 µM
same,MFC:MIC Ratio,[14],>16
same,MFC,"[14]; Fonsecaea nubica, read-out: MFC",> 80 µM
same,MFC:MIC Ratio,[15],1
same,fungicidal or fungistatic (MFC/MIC ratio),[15],"fungicidal (When the MFC/MIC ratio of a hit drug was 1 or 2, the substance was considered fungicidal)"
same,MFC,"[15]; Fonsecaea pedrosoi, read-out: MFC",5 µM
same,MFC:MIC Ratio,[16],2
same,fungicidal or fungistatic (MFC/MIC ratio),[16],"fungicidal (When the MFC/MIC ratio of a hit drug was 1 or 2, the substance was considered fungicidal)"
same,MFC,"[16]; Phialophora verrucosa, read-out: MFC",10 µM
same,MFC:MIC Ratio,[17],>16
same,MFC,[17]; read-out: MFC,> 80 µM
same,CC50 (translated from >100 μg/mL),VERO cells (ATCC CCL-81),~338.98 µM
